Measurements: patent publication US20260183350A1, “ANTIBIOTIC-RESISTANT BACTERIA” (priority 2022, published 2026)

Experiments:
[1] = test system: NDM-1 Escherichia coli; assay: Nitrogen utilisation assay; format: cell-based; details: M9 minimal medium with glucose, 0.1% (w/v) nitrogen source
Method: (§1) New Delhi Metallo-β-lactamase 1 (NDM-1) Escherichia coli, NDM-1 Klebsiella pneumoniae, and NDM-1 Enterobacter cloacae were isolated from patients with intestinal CRE colonisation from the Imperial College Healthcare NHS Trust via rectal swab (REC ref. 19/LO/0112). The species were assigned by matrix assisted laser desorption ionization-time of flight (MALDI-TOF) mass spectrometry and later confirmed with 16S rRNA gene sequencing. CRE status was determined using X-pert Carba-R PCR detection (Cepheid, Sunnyvale, CA, USA), (Otter, J. A. et al. Detecting carbapenemase-producing Enterobacterales (CPE): an evaluation of an enhanced CPE infection control and screening programme in acute care. J Antimicrob Chemother 75, 2670-2676 (2020)).
(§2) Growth of CRE isolates on sole carbon or nitrogen sources was tested by inoculating each CRE isolate into a minimal medium supplemented with the nutrient of interest. First, CRE isolates were passaged from frozen glycerol stocks on Reasoner's 2A agar (R2A) plates. Cells were then suspended in M9 minimal media to a turbidity of 42% using a Turbidimeter (Biolog Inc.), then diluted a further 1 in 6 to inoculate the carbon or nitrogen utilisation assays. M9 minimal media contained the following (at final concentrations): 22 mM KH2PO4, 42 mM Na2HPO4, 9 mM NaCl, 0.49 mM MgSO4·7H2O, 0.09 mM CaCl2), 0.011 mM FeSO4·7H2O. For the carbon assays the M9 minimal medium was also supplemented with 0.1% (w/v) NH4Cl (as the nitrogen source) and the carbon sources were individually tested at 0.5% (w/v) concentration. For the nitrogen assays the M9 minimal medium was also supplemented with 0.5% (w/v) glucose (as the carbon source) and the nitrogen sources were individually tested at 0.1% (w/v) concentration. Cultures were incubated anaerobically and aerobically in a plate reader and OD600 readings were collected every 15 minutes for 24 hours.
(§3) Growth curves were analysed in Python (v3.6.5) using the AMiGA software (Midani, F. S., Collins, J. & Britton, R. A. AMiGA: Software for Automated Analysis of Microbial Growth Assays. mSystems 6, e0050821 (2021)). Growth of each isolate was measured with 6 wells from 2-3 independent experiments. Growth curves were normalised to the no substrate control using the subtraction method. AMiGA performed Gaussian Process regression to test differential growth between the substrate and the no substrate control. The functional difference in the OD (and its credible interval) was also computed between the substrate and the no substrate control.

[2] = test system: vancomycin-resistant E. faecalis; assay: VRE nutrient utilization protocol: nitrogen sources, leave-one-out; format: cell-based, Enterococcus faecalis; details: aerobic; leave-one-out from nitrogen source mixture in minimal medium
Method: (§4) VRE minimal media consists of potassium phosphate monobasic (4 g/L), potassium phosphate dibasic (14 g/L), sodium citrate (1 g/L), magnesium sulphate (0.2 g/L), ammonium sulphate (2 g/L), adenosine (0.04 g/L), thymine (0.04 g/L), Kao and Michayluk vitamin solution [Sigma, K3129, 50× Stock](5×), glucose (1 g/L) and amino acid solution [Sigma, R7131, RPMI-1640, 50×](25×). If the study was performed under anaerobic conditions, fumarate (5.2 g/L) was added to increase growth of VRE strains. Carbon-free minimal media was prepared by leaving out glucose while nitrogen-free minimal media was prepared without the amino acid solution. Media was filter sterilized with a 0.22 micron filter and used immediately aerobically or degassed overnight if used anaerobically.
(§5) VRE strains were grown on R2A overnight before the cells were suspended in 0.9% saline to an OD of 0.38 (λ=595 nm). A 10% dilution of the cell suspension was prepared using VRE minimal media to achieve a final well OD of […] (λ=595 nm) greater than the sterile media OD. Both carbon and nitrogen source utilization were evaluated by adding the inoculated media and a filter-sterilised nutrient source solution into a well in a 1:1 ration to a final volume of 100 μL in aerobic tests and 200 μL in anaerobic tests. Carbon sources were tested individually and compared to a carbon-free control. To test nitrogen source utilization, a nitrogen source solution was prepared containing L-alanine (2 g/L), L-arginine (2.5 g/L, L-asparagine (0.71 g/L), L-aspartate (0.25 g/L), L-cysteine (0.625 g/L), L-glutamate (0.25 g/L), L-Glycine (0.125 g/L), L-histidine (0.1875 g/L), L-isoleucine (0.625 g/L), L-leucine (0.625 g/L), L-lysine HCl (0.5 g/L), L-methionine (0.1875 g/L), L-phenylalanine (0.1875 g/L), L-proline (0.25 g/L), L-serine (0.375 g/L), L-threonine (0.25 g/L), L-tryptophan (0.0625 g/L), L-tyrosine (0.29 g/L), L-valine (0.25 g/L), N-acetylglucosamine (2 g/L), and uracil (2.5 g/L). To test the strains' ability to utilize individual nitrogen sources, separate solutions were prepared eliminating one nitrogen source each. The change in growth compared to the complete nitrogen source solution control was used to determine nitrogen utilization. All carbon and nitrogen sources were tested in a technical triplicate for each biological replicate. Aerobic plates were incubated with a plate seal while anaerobic plates were not. The aerobic plate reader was set to read the plate (λ=595 nm, 37° C., 22 flashes per well, orbital shaking of 100 rpm for 15 s prior to each read) every 15 minutes for 24 hours. The anaerobic plate reader read the plate (λ=595 nm, 37° C., stationary) every 15 minutes for 24 hours.

[3] = test system: vancomycin-resistant E. faecium; assay: as above; format: cell-based, Enterococcus faecium; details: aerobic; leave-one-out from nitrogen source mixture in minimal medium
Method: as §4, §5

[4] = test system: NDM-1 Enterobacter cloacae; assay: Nitrogen utilisation assay; format: cell-based; details: M9 minimal medium with glucose, 0.1% (w/v) nitrogen source
Method: as §1, §2, §3

[5] = test system: NDM-1 Klebsiella pneumoniae; assay: Nitrogen utilisation assay; format: cell-based; details: M9 minimal medium with glucose, 0.1% (w/v) nitrogen source
Method: as §1, §2, §3

[6] = test system: NDM-1 Enterobacter cloacae; assay: Nutrient preference assay (nutrient mixture); format: cell-based; details: M9 with […] of each nutrient, up to 24 hours
Method: as §1
(§6) CRE isolates were passaged once from frozen glycerol stocks on R2A plates. Cells were suspended in M9 minimal media to a turbidity of 42% using a Turbidimeter (Biolog Inc.), then diluted 1 in 6 to inoculate the nutrient preference assays. M9 minimal media was supplemented with 0.015% of each of the following: L-arabinose, D-fructose, L-fucose, D-galactose, D-glucose, D-mannose, D-ribose, D-xylose, N-acetylglucosamine, D-maltose, sucrose, D-trehalose, L-alanine, L-arginine, L-aspartate, L-glutamate, L-glycine, L-isoleucine, L-leucine, L-lysine, L-methionine, L-phenylalanine, L-proline, L-threonine, L-tryptophan, L-tyrosine, L-valine, uracil, and succinate. Cultures were incubated anaerobically and aerobically in a plate reader and OD600 readings were collected every 15 minutes for 24 hours. Cultures were also incubated anaerobically and aerobically for 24 h and samples were collected at 0, 4, 8, and 24 hours post-inoculation for 1H-NMR spectroscopy. Changes in nutrients and metabolites by CRE isolates was compared to the sterile media control over time using a two-way mixed ANOVA followed by pairwise comparisons with Bonferroni correction. […]

[7] = test system: NDM-1 Escherichia coli; assay: Nutrient preference assay (nutrient mixture); format: cell-based; details: M9 with […] of each nutrient, up to 24 hours
Method: as §1, §6

[8] = test system: NDM-1 Klebsiella pneumoniae; assay: Nutrient preference assay (nutrient mixture); format: cell-based; details: M9 with […] of each nutrient, up to 24 hours
Method: as §1, §6

[9] = test system: NDM-1 Enterobacter cloacae; assay: Carbon utilisation assay; format: cell-based; details: aerobic; M9 minimal medium, 0.5% (w/v) carbon source
Method: as §1, §2, §3

[10] = test system: NDM-1 Klebsiella pneumoniae; assay: Carbon utilisation assay; format: cell-based; details: aerobic; M9 minimal medium, 0.5% (w/v) carbon source
Method: as §1, §2, §3

SMILES: CC(C)[C@H](N)C(=O)O [valine, L-valine]
- Use as sole nitrogen source to support E. coli growth ([1]; anaerobic): could use
- Use as nitrogen source to support E. faecalis growth [2]: could use
- Use as nitrogen source to support E. faecium growth [3]: could use

SMILES: N[C@@H](Cc1c[nH]cn1)C(=O)O [histidine, L-histidine]
- Use as nitrogen source to support E. faecalis growth [2]: could use
- Use as nitrogen source to support E. faecium growth [3]: could use

SMILES: CSCC[C@H](N)C(=O)O [methionine, L-methionine]
- Use as sole nitrogen source to support E. cloacae growth ([4]; aerobic): able to grow
- Use as sole nitrogen source to support E. coli growth ([1]; aerobic): able to grow
- Use as sole nitrogen source to support K. pneumoniae growth ([5]; aerobic): able to grow
- Use as nitrogen source to support E. faecalis growth [2]: could use
- Use as nitrogen source to support E. faecium growth [3]: could use

SMILES: N[C@@H](Cc1ccccc1)C(=O)O [phenylalanine, L-phenylalanine]
- Use as sole nitrogen source to support E. cloacae growth ([4]; aerobic): able to grow
- Use as nitrogen source to support E. faecium growth [3]: could use

SMILES: N[C@@H](CO)C(=O)O [serine, L-serine]
- Use as nitrogen source to support E. faecalis growth [2]: could use
- Use as nitrogen source to support E. faecium growth [3]: could use

SMILES: CC(C)C[C@H](N)C(=O)O [leucine, L-leucine]
- Use as sole nitrogen source to support E. cloacae growth ([4]; aerobic): able to grow
- Use as sole nitrogen source to support E. coli growth ([1]; aerobic): able to grow
- Use as sole nitrogen source to support K. pneumoniae growth ([5]; aerobic): able to grow
- Use as nitrogen source to support E. faecalis growth [2]: could use
- Use as nitrogen source to support E. faecium growth [3]: could use

SMILES: N[C@@H](Cc1ccc(O)cc1)C(=O)O [tyrosine, L-tyrosine]
- Use as sole nitrogen source to support E. coli growth ([1]; aerobic): able to grow
- Utilisation of nutrient by E. cloacae from nutrient mixture (1H-NMR) ([6]; aerobic): not utilised
- Utilisation of nutrient by E. cloacae from nutrient mixture (1H-NMR) ([6]; anaerobic): not utilised

SMILES: CC[C@H](C)[C@H](N)C(=O)O [isoleucine, L-isoleucine]
- Use as sole nitrogen source to support E. cloacae growth ([4]; aerobic): able to grow
- Use as sole nitrogen source to support E. coli growth ([1]; aerobic): able to grow
- Use as sole nitrogen source to support K. pneumoniae growth ([5]; aerobic): able to grow
- Use as nitrogen source to support E. faecalis growth [2]: could use
- Use as nitrogen source to support E. faecium growth [3]: could use

SMILES: N=C(N)NCCC[C@H](N)C(=O)O [arginine, L-arginine]
- Use as sole nitrogen source to support E. cloacae growth ([4]; anaerobic): could use
- Use as sole nitrogen source to support E. coli growth ([1]; anaerobic): could use
- Use as sole nitrogen source to support K. pneumoniae growth ([5]; aerobic): could use
- Use as sole nitrogen source to support K. pneumoniae growth ([5]; anaerobic): could use
- Utilisation of nutrient by E. cloacae from nutrient mixture (1H-NMR) ([6]; aerobic): high utilisation
- Utilisation of nutrient by E. cloacae from nutrient mixture (1H-NMR) ([6]; anaerobic): high utilisation
- Use as nitrogen source to support E. faecalis growth [2]: could use
- Use as nitrogen source to support E. faecium growth [3]: could use

SMILES: C[C@@H](O)[C@H](N)C(=O)O [threonine, L-threonine]
- Use as sole nitrogen source to support E. cloacae growth ([4]; aerobic): able to grow
- Use as sole nitrogen source to support E. coli growth ([1]; aerobic): able to grow
- Utilisation of nutrient by E. cloacae from nutrient mixture (1H-NMR) ([6]; aerobic): high utilisation
- Utilisation of nutrient by E. cloacae from nutrient mixture (1H-NMR) ([6]; anaerobic): high utilisation
- Utilisation of nutrient by E. coli from nutrient mixture (1H-NMR) ([7]; aerobic): moderate utilisation
- Utilisation of nutrient by K. pneumoniae from nutrient mixture (1H-NMR) ([8]; aerobic): high utilisation
- Use as nitrogen source to support E. faecium growth [3]: could use

SMILES: NCC(=O)O [glycine, L-glycine]
- Use as sole nitrogen source to support E. cloacae growth ([4]; aerobic): able to grow
- Use as sole nitrogen source to support E. coli growth ([1]; aerobic): able to grow
- Use as sole nitrogen source to support K. pneumoniae growth ([5]; aerobic): able to grow
- Use as nitrogen source to support E. faecalis growth [2]: could use
- Use as nitrogen source to support E. faecium growth [3]: could use

SMILES: N[C@@H](CS)C(=O)O [cysteine, L-cysteine]
- Use as nitrogen source to support E. faecalis growth [2]: could use

SMILES: O=c1cc[nH]c(=O)[nH]1 [uracil]
- Use as sole nitrogen source to support E. cloacae growth ([4]; aerobic): able to grow
- Use as sole nitrogen source to support E. coli growth ([1]; aerobic): able to grow
- Use as sole nitrogen source to support K. pneumoniae growth ([5]; aerobic): able to grow
- Utilisation of nutrient by E. cloacae from nutrient mixture (1H-NMR) ([6]; aerobic): did not use
- Utilisation of nutrient by E. cloacae from nutrient mixture (1H-NMR) ([6]; anaerobic): did not utilise
- Utilisation of nutrient by E. coli from nutrient mixture (1H-NMR) ([7]; aerobic): moderate utilisation
- Utilisation of nutrient by E. coli from nutrient mixture (1H-NMR) ([7]; anaerobic): moderate utilisation
- Utilisation of nutrient by K. pneumoniae from nutrient mixture (1H-NMR) ([8]; aerobic): low utilisation
- Utilisation of nutrient by K. pneumoniae from nutrient mixture (1H-NMR) ([8]; anaerobic): did not utilise

SMILES: C[C@H](O)[C@@H](O)[C@@H](O)[C@H](O)C=O [fucose, L-fucose]
- Use as sole carbon source to support E. cloacae growth [9]: able to grow
- Utilisation of nutrient by K. pneumoniae from nutrient mixture (1H-NMR) ([8]; aerobic): not utilised
- Utilisation of nutrient by K. pneumoniae from nutrient mixture (1H-NMR) ([8]; anaerobic): not utilised

SMILES: O=C(O)[C@@H]1CCCN1 [proline, L-proline]
- Use as sole carbon source to support K. pneumoniae growth [10]: able to grow
- Use as sole nitrogen source to support E. cloacae growth ([4]; aerobic): able to grow
- Use as sole nitrogen source to support E. coli growth ([1]; aerobic): able to grow
- Use as sole nitrogen source to support K. pneumoniae growth ([5]; aerobic): able to grow
- Utilisation of nutrient by E. cloacae from nutrient mixture (1H-NMR) ([6]; aerobic): not utilised
- Utilisation of nutrient by E. cloacae from nutrient mixture (1H-NMR) ([6]; anaerobic): not utilised
- Utilisation of nutrient by E. coli from nutrient mixture (1H-NMR) ([7]; aerobic): not utilised
- Utilisation of nutrient by E. coli from nutrient mixture (1H-NMR) ([7]; anaerobic): not utilised
- Utilisation of nutrient by K. pneumoniae from nutrient mixture (1H-NMR) ([8]; anaerobic): not utilised
